PubChem BioAssay (NCI)
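Protocol summary: plate cells (96-well), add compound at 5 concentrations, incubate 48 h, interpolate endpoints linearly. GI50 is the concentration that inhibits growth by half. At the TGI there is no net growth.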

Legend:
Test in all cases: inhibition of tumour cell growth, NCI panel, 48 h
[1] = test system: SW-620 colon
[2] = test system: UACC-62 melanoma
[3] = test system: HCT-116 colon
[4] = test system: UO-31 renal
[5] = test system: MDA-MB-435
[6] = test system: K-562 leukemia
[7] = test system: MDA-MB-231 breast
[8] = test system: MALME-3M melanoma
[9] = test system: A498 renal
[10] = test system: OVCAR-4 ovarian
[11] = test system: COLO 205 colon
[12] = test system: HCT-15 colon
[13] = test system: SK-OV-3 ovarian
[14] = test system: SNB-19 CNS
[15] = test system: SK-MEL-2 melanoma
[16] = test system: U251 CNS
[17] = test system: SF-539 CNS
[18] = test system: OVCAR-3 ovarian
[19] = test system: SNB-75 CNS
[20] = test system: SK-MEL-28 melanoma
[21] = test system: OVCAR-5 ovarian
[22] = test system: SN12C renal
[23] = test system: M14 melanoma
[24] = test system: HL-60(TB) leukemia
[25] = test system: RPMI-8226 leukemia
[26] = test system: EKVX NSCLC
[27] = test system: NCI-H460 lung
[28] = test system: ACHN renal
[29] = test system: DU-145 prostate
[30] = test system: SR leukemia
[31] = test system: MCF7 breast
[32] = test system: BT-549 breast
[33] = test system: TK-10 renal
[34] = test system: MOLT-4 leukemia
[35] = test system: SF-268 CNS
[36] = test system: IGROV1 ovarian
[37] = test system: OVCAR-8 ovarian
[38] = test system: CCRF-CEM leukemia
[39] = test system: HOP-62 NSCLC
[40] = test system: T-47D breast
[41] = test system: NCI-H522 lung
[42] = test system: SK-MEL-5 melanoma
[43] = test system: 786-0 renal
[44] = test system: HT29 colon
[45] = test system: RXF 393 renal
[46] = test system: HS 578T breast
[47] = test system: NCI/ADR-RES ovarian
[48] = test system: HOP-92 NSCLC
[49] = test system: KM12 colon
[50] = test system: UACC-257 melanoma
[51] = test system: SF-295 CNS
[52] = test system: LOX IMVI melanoma
[53] = test system: PC-3 prostate
[54] = test system: HCC-2998 colon
[55] = test system: A549 NSCLC
[56] = test system: CAKI-1 renal

## Nc1nc(-c2cccc([N+](=O)[O-])c2)c(N=Nc2ccc(Br)cc2)s1
[1]
  GI50: 15.4 µM
  TGI: 78.8 µM
[2]
  GI50: 15.1 µM
  TGI: 41.4 µM
[3]
  GI50: 4.63 µM
  TGI: 16 µM
[4]
  GI50: 12.7 µM
  TGI: 25.2 µM
[5]
  GI50: 20.5 µM
  TGI: 57.2 µM
[6]
  GI50: 10.3 µM
  TGI: > 100 µM
[7]
  GI50: 7.74 µM
  TGI: 24 µM
[8]
  GI50: 16.3 µM
  TGI: 30.5 µM
[9]
  GI50: 16.7 µM
  TGI: 31.7 µM
[10]
  GI50: 11.1 µM
  TGI: 63.3 µM
[11]
  GI50: 24.6 µM
  TGI: 94 µM
[12]
  GI50: 5.57 µM
  TGI: 33.2 µM
[13]
  GI50: 16 µM
  TGI: 30.1 µM
[14]
  GI50: 20.3 µM
  TGI: 50.1 µM
[15]
  GI50: 18.6 µM
  TGI: 51.8 µM
[16]
  GI50: 14.2 µM
  TGI: 33.6 µM
[17]
  GI50: 3 µM
  TGI: 10.4 µM
[18]
  GI50: 18.6 µM
  TGI: 41.3 µM
[19]
  GI50: 18.4 µM
  TGI: 41.1 µM
[20]
  GI50: 18.7 µM
  TGI: 47 µM
[21]
  GI50: 20.3 µM
  TGI: 54.4 µM
[22]
  GI50: 14.1 µM
  TGI: 37.2 µM
[23]
  GI50: 17.3 µM
  TGI: 38.8 µM
[24]
  GI50: 91.2 µM
  TGI: > 100 µM
[25]
  GI50: 21 µM
  TGI: > 100 µM
[26]
  GI50: 17.9 µM
  TGI: 64.1 µM
[27]
  GI50: 12.8 µM
  TGI: 44.6 µM
[28]
  GI50: 14.2 µM
  TGI: 27.3 µM
[29]
  GI50: 8.14 µM
  TGI: 25.8 µM
[30]
  GI50: 21.6 µM
  TGI: > 100 µM
[31]
  GI50: 12.7 µM
  TGI: > 100 µM
[32]
  GI50: 15.7 µM
  TGI: 40.8 µM
[33]
  GI50: 21.6 µM
  TGI: 36.5 µM
[34]
  GI50: 12 µM
  TGI: > 100 µM
[35]
  GI50: 19.1 µM
  TGI: 99.4 µM
[36]
  GI50: 16.2 µM
  TGI: 47.8 µM
[37]
  GI50: 10.2 µM
  TGI: 33.6 µM
[38]
  GI50: 13.4 µM
  TGI: > 100 µM
[39]
  GI50: 15.2 µM
  TGI: 29.8 µM
[40]
  GI50: 9.84 µM
  TGI: 46 µM
[41]
  GI50: 10.9 µM
  TGI: 35.8 µM
[42]
  GI50: 16.9 µM
  TGI: 31.5 µM
[43]
  GI50: 13.6 µM
  TGI: 27.5 µM
[44]
  GI50: 19.4 µM
  TGI: > 100 µM
[45]
  GI50: 12.6 µM
  TGI: 25.4 µM
[46]
  GI50: 19.3 µM
  TGI: > 100 µM
[47]
  GI50: 7.93 µM
  TGI: > 100 µM
[48]
  GI50: 10.1 µM
  TGI: 32.1 µM
[49]
  GI50: 16.1 µM
  TGI: > 100 µM
[50]
  GI50: 22.4 µM
  TGI: 50.8 µM
[51]
  GI50: 23 µM
  TGI: 49.8 µM
[52]
  GI50: 4 µM
  TGI: 26.6 µM
[53]
  GI50: 20.2 µM
  TGI: 86 µM
[54]
  GI50: 18.7 µM
  TGI: 38.8 µM
[55]
  GI50: 17 µM
  TGI: 35.1 µM
[56]
  GI50: 12 µM
  TGI: 24.3 µM
